Assay results reported in patent US20190135879A1, “GENE REGULATING BIN2 FUNCTION AND TRANSGENIC PLANT TRANSFORMED BY THE GENE” (SEOUL NATIONAL UNIVERSITY R&DB FOUNDATION, priority 2016, published 2019).
Residues, ends and D or L forms follow the SMILES beside them. *: point of attachment. Cbz = O=C(OCc1ccccc1)*

Experiments:
[1] = test system: BIN2-HA transgenic seedlings; assay: Phenotype of BIN2-HA transgenic seedlings on BRZ / BL medium; format: in vivo, Arabidopsis thaliana
Method: (§1) Arabidopsis seeds were sterilized and germinated on agar-solidified 1/2 Murashige and Skoog (MS, Duchefa #M0222) with 1% sucrose. After stratification at 4° C. for 3 days, the wild type and mutant plants were grown under a photoperiod of a long day condition (16 h light/8 h dark) at 23° C. Seeds of various transgenic lines were germinated on Murashige and Skoog medium (1/2 MS) with 2 μM BRZ (Sigma), a BR biosynthesis inhibitor, and grown under a long day condition at 23° C. for 1 week. The seedlings were transferred to liquid 1/2 MS medium with 1% sucrose containing various concentrations of BL (24-epibrassinolide, Sigma #E1641), and incubated for the indicated times before being removed for Western analysis. To confirm whether the amount of BIN2 is affected by the BRs level, we grew BIN2-HA line and a bin2-6D-HA line on medium containing 2 μM BRZ for 2 weeks and then transferred them to liquid medium with 1 μM epi-BL for 2 to 8 days.

BIN2-HA protein = assay: BL treatment assay, BIN2-HA protein amount by IP/Western analysis; format: in vivo, Arabidopsis thaliana
Method: Seedlings from 1-week-old plants were harvested and ground to powder in N2 and mixed with the extraction buffer containing 50 mM Tris-Cl (pH 7.5), 100 mM NaCl, 10 mM MgCl2, 1 mM EDTA, 10% glycerol 0.1% NP-40, 1 mM phenymethylsulfonyl fluoride (PMSF), and 1× protease inhibitor cocktail (GenDEPOT) 20 min at 4° C.
The IP experiments were performed using HA Tag IP/Co-IP Kit according to the manufacturer's protocol (Thermo Pierce).
The supernatant was incubated with prewashed anti-HA agarose beads for 4 h at 4° C. with gentle shaking. The beads were collected and washed three times with TBS plus 0.05% Tween-20 detergent (TBST), and dissolved in 2×SDS sample buffer. The proteins were separated by 10% SDS-PAGE, and Anti-HA (1:2,000, AbCam #9110) antibody was used to detect BIN2-HA.
[…] The seedlings were transferred to liquid 1/2 MS medium with 1% sucrose containing various concentrations of BL (24-epibrassinolide, Sigma #E1641), and incubated for the indicated times before being removed for Western analysis.
To investigate the BL-Induced BIN2 degradation, BRZ (Sekimata et al., 2001) treated seedlings were incubated in liquid 1/2 MS medium containing 1 μM BL and/or 20 μM MG132 (Sigma), a specific 26S proteasome inhibitor (Rock et al., 1994) for 30 min.

[2] = test system: bin2-6D-HA transgenic seedlings; assay: Phenotype of bin2-6D-HA transgenic seedlings on BL medium; format: in vivo, Arabidopsis thaliana; settings: 1 μM BL-containing medium for 0, 2, 4 and 8 d
Method: as §1

BIN2 [3] = assay: Immunoprecipitation combined with LC/MALDI-TOF/MS of BIN2-interacting proteins; format: binding, Arabidopsis thaliana; settings: BL-treated transgenic seedlings, anti-HA IP
Method: Seeds of transgenic lines, BIN2-HA, bin2-6D-HA, and BIN2KD-HA, were germinated on agar-solidified 1/2 MS with 1% sucrose supplemented with 1 μM BRZ and grown under a long day condition at 23° C. for 2 week. The seedlings were transferred them to liquid medium (1/2 MS with 1% sucrose) with 1 μM BL, and incubated for 30 min. These seedlings were ground to powder in liquid nitrogen and solubilized with protein extraction buffer containing 50 mM Tris-Cl (pH 7.5), 100 mM NaCl, 10 mM MgCl2, 1 mM EDTA, 10% glycerol 0.1% NP-40, 1 mM PMSF, and 1× Protease inhibitor cocktail (GenDEPOT). The extracts were centrifuged at 20,000×g for 20 min, and the resulting supernatants were collected and incubated with pretreated anti-HA agarose bead (Thermo Pierce) at 4° C. After incubation, the agarose beads were collected by centrifugation at 800×g for 30 sec and washed three times with extraction buffer. Immunoprecipitation (IP) complex was eluted by elution buffer containing 50 mM Tris-HCl (pH 7.5), 50 mM DTT, 1 mM EDTA, 10% glycerol, 1% SDS, and 0.01% bromophenol blue, and then separated in a 10% SDS-PAGE gel, and immunoblot analysis. […] The gel lane with separated bin2-6D-HA proteins was cut into a single slices, and then in-gel tryptic digestion and peptide desalting, the extracted peptides were analyzed by MALDI-TOF mass spectrometry on an Ultraflex III TOF/TOF (Bruker Daltonics, Germany). […]

BIN2 [4] = target: T1, BIN2 (Arabidopsis thaliana, UniProt Q39011); assay: Yeast two-hybrid assay of the BIN2-BRF1 interaction; format: binding; settings: SD/-L-T-H medium with 1.5 mM 3-AT
T1 construct: the full-length cDNA fragments of BIN2 and BRF1 were PCR amplified with specific primers; expressed in transfected cells; host or cells: yeast strain AH109
T1 sequence (Q39011 1-380): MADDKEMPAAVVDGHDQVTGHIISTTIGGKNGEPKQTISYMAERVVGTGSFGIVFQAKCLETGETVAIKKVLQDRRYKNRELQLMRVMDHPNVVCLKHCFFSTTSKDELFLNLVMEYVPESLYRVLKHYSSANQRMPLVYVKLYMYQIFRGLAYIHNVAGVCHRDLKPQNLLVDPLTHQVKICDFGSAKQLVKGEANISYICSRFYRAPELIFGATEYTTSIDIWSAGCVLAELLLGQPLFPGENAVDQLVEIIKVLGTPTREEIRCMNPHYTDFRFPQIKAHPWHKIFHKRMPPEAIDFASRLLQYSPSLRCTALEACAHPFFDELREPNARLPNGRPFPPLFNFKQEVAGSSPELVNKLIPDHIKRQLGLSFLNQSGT
Method: Yeast two-hybrid assay was conducted following the Matchmaker Gold Yeast Two-Hybrid System manufacturer's protocol (Clontech) for testing the BIN2 and BRF1 interaction.
To make the yeast two-hybrid assay constructs, the full-length cDNA fragments of BIN2 and BRF1 were PCR amplified with specific primers, BIN2-F and BIN2-R, BRF1-NdeI-F and BRF1-EcoRI-R, respectively. The PCR products BIN2 and BRF1 were ligated to the prey pGADT7 vector (AD vector) and the bait pGBKT7 vector (DBD vector), respectively. These prey and bait vectors were transformed into the yeast strain AH109, and yeast was grown on SD/-Trp/-Leu medium for 3 days. Transformants were selected on SD/Leu-/Trp- and SD/Leu-/Trp-/His-/1.5 mM 3-amino-1,2,4-triazole (3-AT, Sigma) medium. Empty vectors were used as the negative control.
Yeast two-hybrid analysis performed using primers BIN2-NdeI-F (5′-[…]-3′), BIN2-EcoRI-R (5′-[…]-3′), BRF1-NdeI-F (5′-[…]-3′), BRF1-EcoRI-R (5′-[…]-3′), (NdeI and EcoRI sites are underlined) (SEQ ID NOs: 48-51)

Q: CC(O)(c1ccccc1)C(Cc1ccc(Cl)cc1)n1cncn1 (stereo not drawn) [BRZ] was tested. Which “effect of BRZ treatment on bin2 phenotype of BIN2-HA seedling” value ([1]; 2 μM BRZ medium for 2 weeks) did it give?
A: The value was “enhanced”.

Q: What about the “effect of exogenous application on BIN2 protein” value (BIN2-HA protein; exogenous application of BRZ) of the same molecule?
A: Its value is “increased”.

Q: For CC(C)C[C@@H](C=O)NC(=O)[C@H](CC(C)C)NC(=O)[C@H](CC(C)C)NC(=O)OCc1ccccc1 [MG132] (Cbz-Leu-Leu-Leu-aldehyde), which “effect on BL-induced BIN2 disappearance” value (BIN2-HA protein; BIN2-HA seedlings, 1 μM BRZ 2 weeks, then 1 μM BL and/or 20 μM MG132, 30 min, IP/Western) is on record?
A: The value was “effectively blocked”.

Q: Which “phenotypic response of dwarfed bin2-6D-HA line to BL treatment” value [2] does the source give for CC(C)[C@@H](C)[C@@H](O)[C@H](O)[C@@H](C)[C@H]1CC[C@H]2[C@@H]3COC(=O)[C@H]4C[C@H](O)[C@H](O)C[C@]4(C)[C@H]3CC[C@]12C [BL, 24-epibrassinolide] here?
A: Its value is “BL-insensitive”.

Q: And the “phenotypic response of BIN2-HA transgenic line to BL treatment” value ([1]; 1 μM BL-containing medium for 0, 2, 4 and 8 d)?
A: Its value is “responds”.

Q: And the “time within which BRZ-stabilized BIN2-HA protein decreased by BL treatment” value (BIN2-HA protein; BRZ-grown BIN2-HA seedlings transferred to BL liquid medium, Western)?
A: Its value is 10 to 30 min.

B1: BRF2: Arabidopsis F-box E3 ligase protein encoded by At5g56690, SEQ ID NO: 4 (protein, listed as Arabidopsis sp.)
chain: MAEISGLPDDLLVKILAFLPTKVAISTSVLSKQWRFLWMWLPKLKYDDYDDITDGFNSVSAFQTYRDFIAKNLPLHRAPIIESLSLGFRCGTLQPEDLKSWVEVAVSRSVRELSILAYYRNNYALSSSSLYTCKSLVTLKGFNIRVDVPPTVCLLPSLRTLELKRVRYLNEDSLRMLLSFCPVLEYLSIERHDNDNLRGLVVDVPSLRRLSLTSYTGCSSDDYVIVTPSLKYFKAFDYRSEISSYKIEKIPELEEADISIERNPEKLFVYFKSIKCLSLQVDFNSKEEPGYDSGIVFNHLEELTPYINDANWSKLLFRLLNDSPKLRVLEISNSKSFYKEKIGEYLPVSWSKNQGSVPKCFLNSLETFRVKWYYSEEQEDRDFLSLIFKHARCLKSTSILHR
Q: With B1 as the molecule, how does the “identification as BIN2-interacting protein by IP combined LC/MALDI-TOF/MS” value (BIN2 [3]) read?
A: Its value is “BIN2-interacting protein”.

B2: BRF1: Arabidopsis F-box E3 ligase protein encoded by At5g62970, SEQ ID NO: 2 (protein, listed as Arabidopsis sp.)
chain: MDKISGFSDDELLVKILSFLPFKFAITTSVLSKQWKFLWMRVPKLEYDEDSMYSFEYSFRYFLPKAKEVDSETYSIVSESGHRMRSFIEKNLPLHSSPVIESLRLKFFTEVFQPEDIKLWVEIAVSRCAQELSVDFFPKEKHNALLPRNLYTCKSLVTLKLRNNILVDVPHVFSLPSLKILHLERVTYGDGESLQRLLSNCSVLEDLVVELDTGDNVRKLDVIIPSLLSLSFGMSRYCAYEGYRIDTPSLKYFKLTDLSKTFSGLIENMPKLEEANITARHNFKKLLELVTSVKRLSLNIENNDAEALTAIYGDDIVFNELEHLNFHIHNAYWSELLYWLLKASPKLQNLEFDEQCSRDGTMGTLAVFWNQPNSVPQCLLSTLQTFEWSGYPGSVQGKDLATYILRKSRQLKIATISIGYGLDPQQKLKMEMDVKFSFRASPTCKRVFY
Q: With B2 as the molecule, how does the “interaction with BIN2 in yeast two-hybrid assay” value (BIN2 [4]) read?
A: The value was “specially interacted”.

Q: And the “identification as BIN2-interacting protein by IP combined LC/MALDI-TOF/MS” value (BIN2 [3])?
A: Its value is “BIN2-interacting protein”.
